By IC50 is commonly meant the concentration that inhibits the measured activity by half.

This assay addresses Serine/threonine-protein phosphatase 5 (Homo sapiens) (UniProt P53041). Nature of the assay: PP5 phosphohistone dephosphorylation inhibition IC50 – biochemical, radiolabel, powder samples, orthogonal assay for PP5 inhibitor project, dose response (AID 463224). To be noted: purified PP5c, 33P-phosphohistone dephosphorylation, scintillation.

Chain of Serine/threonine-protein phosphatase 5 (Homo sapiens) (P53041 whole entry, looked up): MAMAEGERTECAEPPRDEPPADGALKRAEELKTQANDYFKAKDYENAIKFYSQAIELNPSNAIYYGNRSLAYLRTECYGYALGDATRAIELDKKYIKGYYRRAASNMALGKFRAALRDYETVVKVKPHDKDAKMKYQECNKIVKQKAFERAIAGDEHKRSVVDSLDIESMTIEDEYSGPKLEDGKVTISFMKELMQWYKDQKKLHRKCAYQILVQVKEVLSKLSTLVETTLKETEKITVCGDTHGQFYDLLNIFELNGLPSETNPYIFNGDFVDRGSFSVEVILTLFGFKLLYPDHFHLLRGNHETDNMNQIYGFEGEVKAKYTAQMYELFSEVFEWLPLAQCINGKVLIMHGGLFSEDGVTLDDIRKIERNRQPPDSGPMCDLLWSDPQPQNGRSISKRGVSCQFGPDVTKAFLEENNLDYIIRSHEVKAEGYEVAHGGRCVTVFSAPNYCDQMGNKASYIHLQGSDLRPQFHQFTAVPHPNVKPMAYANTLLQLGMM

For `O=C(O)c1n[nH]nc1-c1ccccc1`, the IC50 is 40.6 µM. As to `O=C(O)C1C2CCC(O2)C1C(=O)NC1CCCCC1` (configuration not stated), the IC50 is 13.5 µM.

Source of the values: PubChem BioAssay AID463224 (The Scripps Research Institute Molecular Screening Center, 2010).
